Drawing on patent publication US9340577B2, “HLA binding motifs and peptides and their uses” (priority 1992, dated 2016), this text covers IC50 for 39 sequences.

Assay in all cases: biochemical
What all share (assay type): binding

The target of test [1] is HLA-A3.2 (A*0301) (Homo sapiens, UniProt P04439).
The target of test [2] is HLA-A11 (A*1101) (Homo sapiens, UniProt P04439, A114D/D185E/E176A/F33Y/L180Q/S129P/T187R).
The target in test [3] is A31 (A*3101) (Homo sapiens, UniProt P04439, A270S/D185E/E176V/E277Q/F33T/G231S/G80R/H175R/I121M/I218V/I322F/K168Q/L300P/L318F/M331R/P217A/Q94H/R138Q/T323A/T345S/T97I/V358M).
Test [4] addresses A*3301 (Homo sapiens, UniProt P04439, A270S/D185E/E176V/E277Q/E87N/F33T/G231S/H175R/I121M/I218V/I322F/K168Q/K210R/L300P/L318F/M331R/P217A/Q86R/Q94H/R138Q/T323A/T345S/T97I/V358M/Y195H).
Test [5] concerns the target A*6801 (Homo sapiens, UniProt P04439, A269V/D185E/E176V/E277Q/E87N/F33Y/G231S/I121M/I166T/I218V/L180W/L300P/L318F/N151K/P208A/P217A/Q86R/R169H/T345S).

No end group written: not given here.

One may read the IC50 as the point on the concentration scale where inhibition reaches its midpoint. On to KVSEFRWYR [Peptide 78.0281], for which the half-inhibitory concentration (IC50) was found to be 0.043 µM in test [1]; 0.015 µM in test [2]; 0.01 µM in test [3]; 0.032 µM in test [4]; 0.023 µM in test [5].
As for KVSPIVHLK [Peptide 1589.42], the half-maximal inhibitory concentration (IC50) in test [1] is 0.021 µM; in test [2] it was 0.03 µM; in test [3], 0.006 µM; in test [4] it was over 20 µM; in test [5], 0.025 µM.
For the sequence LFYSKVRKYK [Peptide 88.0098], the IC50 is 0.68 µM in test [1]; 2.58 µM in test [2]; 0.018 µM in test [3]; 0.03 µM in test [4]; 1.98 µM in test [5].
In the case of LLFYSKVRK [Peptide 78.0298], the 50% inhibitory concentration (IC50) in test [1] was found to be 0.0039 µM; in test [2], 0.013 µM; in test [3] it was 0.395 µM; in test [4] it was 0.799 µM; in test [5] it was 0.023 µM.
On to LLLIRFKCSK [Peptide 88.0191], for which the IC50 stood at 0.284 µM in test [1]; 3.52 µM in test [2]; 0.749 µM in test [3]; 17.4 µM in test [4]; 0.879 µM in test [5].
The corresponding values for LLQAVRIIK [Peptide 9017.0068] are 0.107 µM, 0.326 µM, 0.328 µM, 3.02 µM and 15.9 µM.
The corresponding values for LLRAVRIIK [Peptide 9017.0069] are 0.069 µM, 2.03 µM, 2.64 µM, over 20 µM and over 20 µM.
For the sequence LLYGAANTGK [Peptide 1587.12], the IC50 in test [1] was 0.0033 µM; in test [2], 0.016 µM; in test [3], 6.72 µM; in test [4], over 20 µM; in test [5] it was 0.076 µM.
In the case of LLYGPANTGK [Peptide 1587.56], the 50% inhibitory concentration (IC50) was 0.014 µM in test [1]; 0.0088 µM in test [2]; 6.3 µM in test [3]; 14.5 µM in test [4]; 0.044 µM in test [5].
Take LQGKLYYKFK [Peptide 88.0184]: the half-maximal inhibitory concentration (IC50) in test [1] is 0.724 µM; in test [2], 0.13 µM; in test [3], 3.71 µM; in test [4], 16.2 µM; in test [5], over 20 µM.
The matching figures for LQLALEALNK [Peptide 88.0227]: 1.1 µM, 0.021 µM, 3.63 µM, over 20 µM and over 20 µM.
LSALKLFLK [Peptide 1587.39]: the half-inhibitory concentration (IC50) in test [1] turned out to be 0.957 µM; in test [2], 0.031 µM; in test [3], 0.096 µM; in test [4], 1.82 µM; in test [5] it was 2.21 µM.
As for LTNILNVLK [Peptide 1587.02], the 50% inhibitory concentration (IC50) was 0.221 µM in test [1]; 0.0046 µM in test [2]; 0.21 µM in test [3]; 2.03 µM in test [4]; 0.012 µM in test [5].
As for LTSQIEHWK [Peptide 88.0439], the IC50 in test [1] is 4.94 µM; in test [2] it was 0.014 µM; in test [3], 8.88 µM; in test [4], over 20 µM; in test [5] it was 0.024 µM.
As for LTTNIHPAK [Peptide 88.0347], the IC50 was found to be 0.044 µM in test [1]; 0.018 µM in test [2]; 0.231 µM in test [3]; 0.575 µM in test [4]; 0.016 µM in test [5].
For the sequence LVYQDTILWK [Peptide 9012.0221], the IC50 is 0.199 µM in test [1]; 0.032 µM in test [2]; over 20 µM in test [3]; over 20 µM in test [4]; 0.155 µM in test [5].
LVYRDDFPY [Peptide 1581.04]: the half-maximal inhibitory concentration (IC50) is 7.38 µM in test [1]; 0.058 µM in test [2]; over 20 µM in test [3]; over 20 µM in test [4]; 11.3 µM in test [5].
Turning to MALESILRK [Peptide 9012.0214], the concentration for half-maximal inhibition (IC50) in test [1] was 0.216 µM; in test [2], 0.013 µM; in test [3], over 20 µM; in test [4] it was 5.48 µM; in test [5], 0.433 µM.
Take MLVRFKCAK [Peptide 1587.30]: the IC50 is 0.151 µM in test [1]; 0.187 µM in test [2]; 0.085 µM in test [3]; 0.983 µM in test [4]; 0.864 µM in test [5].
MQYVAWKYIY [Peptide 88.0233]: the IC50 in test [1] was 1.89 µM; in test [2], 0.052 µM; in test [3] it was over 20 µM; in test [4], over 20 µM; in test [5], 12.1 µM.
MTDAGTWDK [Peptide 88.0400]: the IC50 was 1.58 µM in test [1]; 0.012 µM in test [2]; over 20 µM in test [3]; over 20 µM in test [4]; 0.028 µM in test [5].
For the sequence MTYVAWDSVY [Peptide 1589.07], the IC50 in test [1] was 0.616 µM; in test [2], 0.892 µM; in test [3], 19.4 µM; in test [4], over 20 µM; in test [5], 0.073 µM.
In the case of NLQGKLYYK [Peptide 88.0375], the concentration for half-maximal inhibition (IC50) in test [1] was determined as 0.277 µM; in test [2] it was 0.055 µM; in test [3] it was 0.363 µM; in test [4], 0.0094 µM; in test [5] it was 0.098 µM.
Regarding NSNAAAFLK [Peptide 88.0342], the IC50 turned out to be 0.955 µM in test [1]; 0.019 µM in test [2]; 2.64 µM in test [3]; 0.665 µM in test [4]; 0.022 µM in test [5].
The corresponding values for NSNAAAFLR [Peptide 88.0387] are over 20 µM, 0.213 µM, 0.158 µM, 0.05 µM and 0.02 µM.
NSNASAFLK [Peptide 1587.07]: the IC50 in test [1] was 0.426 µM; in test [2], 0.013 µM; in test [3], 3.4 µM; in test [4], 0.269 µM; in test [5], 0.027 µM.
NVAPIVHLK [Peptide 1589.21]: the IC50 in test [1] is 6.38 µM; in test [2] it was 0.394 µM; in test [3], over 20 µM; in test [4], over 20 µM; in test [5], 0.0024 µM.
For QQLLFIHFR [Peptide 9017.0111], the IC50 stood at 1.8 µM in test [1]; 0.0048 µM in test [2]; 0.002 µM in test [3]; 0.041 µM in test [4]; 0.017 µM in test [5].
For the sequence QQMFLGTVK [Peptide 88.0415], the IC50 in test [1] is 2.04 µM; in test [2] it was 0.022 µM; in test [3] it was 7.17 µM; in test [4], over 20 µM; in test [5], 1.58 µM.
Take QSNPYPEPK [Peptide 9017.0070]: the IC50 in test [1] is 1.04 µM; in test [2] it was 0.046 µM; in test [3], 0.513 µM; in test [4], over 20 µM; in test [5], 0.868 µM.
The corresponding values for QTCALYWFR [Peptide 88.0361] are 1.96 µM, 0.064 µM, 0.051 µM, 0.019 µM and 0.018 µM.
In the case of QVVPALSVSK [Peptide 1589.13], the half-maximal inhibitory concentration (IC50) in test [1] is 0.825 µM; in test [2], 0.025 µM; in test [3] it was 8.92 µM; in test [4] it was over 20 µM; in test [5], 0.012 µM.
As to QVVPAYNISK [Peptide 1589.06], the IC50 in test [1] is 0.326 µM; in test [2], 0.015 µM; in test [3], 6.67 µM; in test [4], over 20 µM; in test [5], 0.0076 µM.
Regarding QVVPPINISK [Peptide 1589.23], the half-maximal inhibitory concentration (IC50) was 1.28 µM in test [1]; 0.011 µM in test [2]; 1.56 µM in test [3]; over 20 µM in test [4]; 0.014 µM in test [5].
The matching figures for RINTWKSLVK [Peptide 9017.0215]: 0.012 µM, 0.01 µM, 0.632 µM, over 20 µM and 11.5 µM.
For the sequence RLECAIYYK [Peptide 1589.01], the IC50 in test [1] is 0.055 µM; in test [2], 0.03 µM; in test [3] it was 0.15 µM; in test [4], 6.55 µM; in test [5], 7.02 µM.
Consider RLECVLMYK [Peptide 1589.12], for which the IC50 in test [1] worked out at 0.0087 µM; in test [2], 0.021 µM; in test [3] it was 0.044 µM; in test [4], 0.828 µM; in test [5], 3.63 µM.
Regarding RLIERIRER [Peptide 9017.0124], the half-inhibitory concentration (IC50) in test [1] turned out to be 0.057 µM; in test [2], 0.407 µM; in test [3], 0.014 µM; in test [4], 1.1 µM; in test [5] it was 0.983 µM.
Consider RLKAICIEK [Peptide 1587.01], for which the IC50 is 0.043 µM in test [1]; 0.52 µM in test [2]; 0.02 µM in test [3]; over 20 µM in test [4]; over 20 µM in test [5].
